From patent publication US11912723B2, “KRAS modulators and uses thereof” (Quanta Therapeutics, Inc., priority 2022, dated 2024) come the findings set out here.

What is called IC50 is the concentration that gives 50% inhibition. High values mean weaker potency in that assay, low ones greater potency in that assay.

For assay [1], the target named is T1, GST-tagged KRAS G12D (2-169) (Homo sapiens, UniProt P01116, G12D).
T1 construct: GST-tagged KRAS^G12D (2-169, Reaction Biology, MSC-11-539); purchased Reaction Biology MSC-11-539 (KRAS G12D); MSC-11-502 (SOS1cat)
Put plainly: Nucleotide exchange assay (NEA), HTRF of SOS-mediated GTP-DY-647P1 binding. The format is biochemical. The settings on record: 5 nM GST-KRAS G12D, 20 nM SOScat, 150 nM GTP; compound 1 h at RT. Put shortly: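 SOS1cat (564-1049)-driven loading of GTP-DY-647P1 onto KRAS G12D, read by HTRF with anti-GST Tb cryptate donor; compound preincubated with KRAS 1 h at RT. Final 5 nM KRAS, 20 nM SOScat, 150 nM GTP, pH 7.3 HEPES buffer; read up to 90 min at RT. Blanked to no-SOS1; 4-parameter fit of % inhibition.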
For orientation: Time-resolved FRET reads energy transfer from a long-lived donor to a nearby acceptor.

The target of a further assay is T2, KRAS G12D/RAF1 (Homo sapiens, UniProt P01116, G12D).
T2 construct: KRAS (1-169) proteins were expressed in E. coli at 18° C; His6-MBP (N, cleaved yes); made in house; host or cells: E. coli
Put plainly: Protein-protein interaction (PPI) HTRF assay KRAS G12D/RAF1. The format is binding. The settings on record: KRAS G12D/RAF1, GppNHp-loaded KRAS; 30 minutes pre-incubation. As to the method: Biotinylated KRAS wt and KRAS G12DNV proteins were expressed and purified in conditions similar to those previously reported (Tran, et al., 2021) (Zhang, et al., 2020). Briefly, KRAS (1-169) proteins were expressed in E. coli at 18° C. with an upstream TEV cleavage site (ENLFYQS) followed an Avi tag sequence ([…]). KIRAS expression constructs contained both a His6 and maltose-binding protein (MBP) tags at the N-terminus for Ni-NTA column purification prior to overnight TEV cleavage and MBP column purification. The avi-tagged NRAS expression construct contained both a His6 tag and SUMO cleavage sige at the N-terminus for Ni-NTA column purification followed by His-ULP1 digestion overnight. All avi-tagged RAS proteins were dialyzed into buffer containing ATP, biotin, and BirA followed by purification over a second Ni-NTA column and then run over a size exclusion HiLoad™ 26/600 Superdex™ column in 20 mM HEPES, pH 7.5, 300 mM NaCl, 5 mM MgCl2, and 1 mM TCEP. Fractions containing the protein of interest were pooled, concentrated, and confirmed by intact mass spectrometry. To prepare ‘GTP’ loaded KRAS and NRAS, biotinylated KRAS or NRAS was nucleotide exchanged from GDP-bound protein to GppNHp-bound (Jena Biosciences, NU-401-50) protein in the presence of alkaline phosphatase and excess GppNHp as previously described and the resulting nucleotide content was confirmed by HPLC reverse phase analytical chromatography (Donohue, et al., 2019) (Tran, et al., 2021).
His-tagged RAF1 (52-131) was similarly expressed in E. coli at 18° C. overnight with an upstream TEV cleavage site. His-tagged RAF1 expression construct contained both a His6 and MBP tags at the N-terminus for Ni-NTA column purification followed by MBP-tagged TEV digestion overnight. RAF1 protein samples were further purified over a MBP column followed by a Ni-NTA column and a second MBP column. The fractions containing the protein of interest were pooled, concentrated, and further purified over a HiLoad™ 16/600 Superdex™ 75 pg size exclusion column into 20 mM HEPES, pH8.0, 200 mM NaCl, 5 mM TCEP.
When RAS proteins are in the active GTP-bound conformation, they bind the effector protein RAF1 at the N-terminus Ras-binding domain (RBD, residues 52-131) (Tran, et al., 2021). Homogenous time resolved fluorescence (HTRF) was used to monitor the interaction between wt or mutant KRAS and RAF1 or wt NRAS and RAFT. Compounds were assayed in the presence of KRAS G12D/V and RAF1 versus wt KRAS to assess activity against mutant and w.t. KRAS. Similarly, compounds were then assayed in the presence of w.t. NRAS and RAF1 to assess RAS isoform selectivity. In all assay formats, His-tagged RAF1 protein was incubated with the HTRF donor, anti-6His Tb Cryptate gold (Cisbio 61DB10RDF), and biotinylated RAS proteins were incubated with the HTRF acceptor, streptavidin-d2 (CisBio 610SADLA). The intensity of the fluorescence signal emitted is proportional to binding between the two proteins. The donor solution was prepared by mixing 16 nM His-tagged RAF1 in protein dilution buffer with 1:100 anti-6His Tb cryptate in PPI-Terbium detection buffer. 16 nM biotinylated RAS protein was diluted into protein dilution buffer (50 mM Tris-HCl pH 7.5, 150 mM NaCl, 0.1 mM MgCl2, 1 mM TCEP, 0.005% Tween20) and mixed with 1:2000 Streptavidin-d2 diluted in PPI-Terbium detection buffer (CisBio 61DB10RDF). 50× compound in DMSO was mixed with 16 nM KRAS-acceptor solution and incubated for 30 minutes at room temperature. After compound pre-incubation with KRAS, the RAF1 donor solution was added to the KRAS-acceptor solution and incubated for 1 hour at room temperature. The fluorescence signal emitted was monitored at 665 nm and 615 nm using an Envision multimode plate reader. The HTRF ratio (665/615) was calculated and normalized to 0% inhibition in the absence of compound and 100% inhibition in the presence of untagged RAF1 protein. […]

On to `CCN1Cc2c(nc(OC[C@@]34CCCN3C[C@H](F)C4)nc2N2CCCn3nc(C(=O)N(C)C)c(Cl)c3C2)C[C@]12CCCc1ccccc12` [Compound 100, 3-chloro-5-[(7S)-6-ethyl-2-[[(2R,8S)-2-fluoro-1,2,3,5,6,7-hexahydropyrrolizin-8-yl]methoxy]spiro[5,8-dihydropyrido[4,3-d]pyrimidine-7,1′-tetralin]-4-yl]-N,N-dimethyl-4,6,7,8-tetrahydropyrazolo[1,5-a][1,4]diazepine-2-carboxamide], for which the IC50 in assay [1] was 0.01 to 0.1 µM; on KRAS G12D/RAF1 it was above 100 µM.

`Cc1noc(-c2cc3n(n2)CCCN(c2nc(OC[C@@]45CCCN4C[C@H](F)C5)nc4c2CN(C)[C@@]2(CCc5cccc(F)c52)C4)C3)n1` [Compound 73, 5-[5-[(7S)-7′-fluoro-2-[[(2R,8S)-2-fluoro-1,2,3,5,6,7-hexahydropyrrolizin-8-yl]methoxy]-6-methyl-spiro[5,8-dihydropyrido[4,3-d]pyrimidine-7,1′-indane]-4-yl]-4,6,7,8-tetrahydropyrazolo[1,5-a][1,4]diazepin-2-yl]-3-methyl-1,2,4-oxadiazole]: the IC50 in assay [1] was 0.01 to 0.1 µM; at KRAS G12D/RAF1 it was above 100 µM.

As to `F[C@H]1CN2CCC[C@@]2(COc2nc3c(c(N4C[C@H]5CC[C@@H](C4)N5)n2)COC2(C3)c3ccccc3-c3n[nH]cc32)C1` (stereo partly drawn) [Compound 3, 4′-[(1R,5S)-3,8-diazabicyclo[3.2.1]octan-3-yl]-2′-[[(2R,8S)-2-fluoro-1,2,3,5,6,7-hexahydropyrrolizin-8-yl]methoxy]spiro[2H-indeno[1,2-c]pyrazole-4,7′-5,8-dihydropyrano[4,3-d]pyrimidine]], the results for the IC50 (in assay [1]; at KRAS G12D/RAF1) were 1 to 20 µM and above 100 µM, respectively.

For the molecule `CN1Cc2c(nc(OC[C@@]34CCCN3C[C@H](F)C4)nc2N2CCn3cncc3C2)C[C@]12CCCc1ccccc12` [Compound 91, (7S)-4-(6,8-dihydro-5H-imidazo[1,5-a]pyrazin-7-yl)-2-[[(2R,8S)-2-fluoro-1,2,3,5,6,7-hexahydropyrrolizin-8-yl]methoxy]-6-methyl-spiro[5,8-dihydropyrido[4,3-d]pyrimidine-7,1′-tetralin]], the IC50 is 1 to 20 µM in assay [1] and above 100 µM on KRAS G12D/RAF1.

As to `CN1Cc2c(nc(OC[C@@]34CCCN3C[C@H](F)C4)nc2N2CCCn3nc(-c4ccccn4)c(Cl)c3C2)C[C@]12CCCc1ccccc12` [Compound 93, (7S)-4-[3-chloro-2-(2-pyridyl)-4,6,7,8-tetrahydropyrazolo[1,5-a][1,4]diazepin-5-yl]-2-[[(2R,8S)-2-fluoro-1,2,3,5,6,7-hexahydropyrrolizin-8-yl]methoxy]-6-methyl-spiro[5,8-dihydropyrido[4,3-d]pyrimidine-7,1′-tetralin]], the IC50 in assay [1] was below 0.01 µM; on KRAS G12D/RAF1 it was 10 to 100 µM.

Turning to `C[C@@]1(O)CCCN(c2nc(OC[C@@]34CCCN3C[C@H](F)C4)nc3c2COC2(CCc4c(Cl)cccc42)C3)C1` (single isomer, unassigned) [Compound 23A, (3R)-1-[(7*)-4′-chloro-2-[[(2R,8S)-2-fluoro-1,2,3,5,6,7-hexahydropyrrolizin-8-yl]methoxy]spiro[5,8-dihydropyrano[4,3-d]pyrimidine-7,1′-indane]-4-yl]-3-methyl-piperidin-3-ol], the IC50 was 0.1 to 1 µM in assay [1] and above 100 µM on KRAS G12D/RAF1.

`CN1Cc2c(nc(OC[C@@]34CCCN3C[C@H](F)C4)nc2N2CCCn3nc(-c4cccc(O)n4)cc3C2)C[C@]12CCCc1ccccc12` [Compound 92, 6-[5-[(7S)-2-[[(2R,8S)-2-fluoro-1,2,3,5,6,7-hexahydropyrrolizin-8-yl]methoxy]-6-methyl-spiro[5,8-dihydropyrido[4,3-d]pyrimidine-7,1′-tetralin]-4-yl]-4,6,7,8-tetrahydropyrazolo[1,5-a][1,4]diazepin-2-yl]pyridin-2-ol]: the IC50 is 0.1 to 1 µM in assay [1] and above 100 µM at KRAS G12D/RAF1.

As for `N#Cc1ccc2c(c1)C1(CCC2)Cc2nc(OC[C@@]34CCCN3C[C@H](F)C4)nc(N3CCCCCC3)c2CO1` (stereo partly drawn) [Compound 20, 4-(azepan-1-yl)-2-[[(2R,8S)-2-fluoro-1,2,3,5,6,7-hexahydropyrrolizin-8-yl]methoxy]spiro[5,8-dihydropyrano[4,3-d]pyrimidine-7,4′-tetralin]-6′-carbonitrile], the IC50 in assay [1] is 1 to 20 µM; against KRAS G12D/RAF1, above 100 µM.

`C[C@@H]1Cn2cncc2CN1c1nc(OC[C@@]23CCCN2C[C@H](F)C3)nc2c1CN(C)[C@@]1(CCCc3ccccc31)C2` [Compound 94, (7S)-2-[[(2R,8S)-2-fluoro-1,2,3,5,6,7-hexahydropyrrolizin-8-yl]methoxy]-6-methyl-4-[(6R)-6-methyl-6,8-dihydro-5H-imidazo[1,5-a]pyrazin-7-yl]spiro[5,8-dihydropyrido[4,3-d]pyrimidine-7,1′-tetralin]]: the IC50 is 1 to 20 µM in assay [1] and above 100 µM against KRAS G12D/RAF1.

Regarding “[5-[(7S)-4′-chloro-2-[[(2R,8S)-2-fluoro-1,2,3,5,6,7-hexahydropyrrolizin-8-yl]methoxy]spiro[5,8-dihydropyrano[4,3-d]pyrimidine-7,1′-indane]-4-yl]-4,6,7,8-tetrahydropyrazolo[1,5-a][1,4]diazepin-2-yl]-pyrrolidin-1-yl-methanone [Compound 34]”, the IC50 in assay [1] is below 0.01 µM; on KRAS G12D/RAF1, above 100 µM.

As to `CN1Cc2c(nc(OC[C@@]34CCCN3C[C@H](F)C4)nc2N2CCCn3nc(C(=O)O)c(Cl)c3C2)C[C@]12CCCc1ccccc12` [Compound 78, 3-chloro-5-[(7S)-2-[[(2R,8S)-2-fluoro-1,2,3,5,6,7-hexahydropyrrolizin-8-yl]methoxy]-6-methyl-spiro[5,8-dihydropyrido[4,3-d]pyrimidine-7,1′-tetralin]-4-yl]-4,6,7,8-tetrahydropyrazolo[1,5-a][1,4]diazepine-2-carboxylic acid], the IC50 is below 0.01 µM in assay [1] and 10 to 100 µM on KRAS G12D/RAF1.

Consider `CS(=O)(=O)c1cc2n(n1)CCCN(c1nc(OC[C@@]34CCCN3C[C@H](F)C4)nc3c1CO[C@@]1(CCc4c(Cl)cccc41)C3)C2` [Compound 62, (7S)-4′-chloro-2-[[(2R,8S)-2-fluoro-1,2,3,5,6,7-hexahydropyrrolizin-8-yl]methoxy]-4-(2-methylsulfonyl-4,6,7,8-tetrahydropyrazolo[1,5-a][1,4]diazepin-5-yl)spiro[5,8-dihydropyrano[4,3-d]pyrimidine-7,1′-indane]], for which the IC50 in assay [1] was 0.01 to 0.1 µM; at KRAS G12D/RAF1, above 100 µM.
